Measurements as given in patent publication US20240165078A1, “THERAPEUTIC TARGETING OF RECEPTOR TYROSINE KINASE INHIBITOR-INDUCED ANDROGEN RECEPTOR PHOSPHORYLATION IN CANCER” (Indiana University Research and Technology Corporation, priority 2018, published 2024).
Where a SMILES comes first, the peptide text is derived from it. The star is where a group is joined. Cbz = O=C(OCc1ccccc1)*

Columns and labels:
786-0R cells = assay: Ki67 immunofluorescence staining; assay type: cell-based, human; conditions: in the presence of sunitinib and enzalutamide
Protocol: (§1) AR expression was also assessed in other RCC cell lines (FIG. 1E).

KLK2 [1] = assay: Human KLK2 ELISA, serum of 786-0 tumor bearing mice; assay type: in vivo; conditions: 786-0 model, end-point
KLK2 [2] = assay: Human KLK2 ELISA, tissue culture supernatant; assay type: cell-based; conditions: in vitro, RCC cell lines
[3] = tested on: AR+ RCC cell lines (786-0R, UMRC2, Caki2); assay: Crystal violet cell viability assay, AR+ RCC cell lines; assay type: cell-based, human
Protocol: as §1

786-0 tumors = assay: 786-0 RCC tumor model in mice; assay type: in vivo
androgen receptor [4] = target: T1, androgen receptor (Homo sapiens, UniProt P10275); assay: AR expression by immunofluorescence in RCC cells (sunitinib, enzalutamide, combination, ±MG132); assay type: cell-based; conditions: 786-0R and UMRC2 cells
T1 construct: Baseline AR expression was high in 786-0R and UMRC2 cells; host or cells: 786-0, 786-0R, UMRC2
T1 sequence (P10275 1-920): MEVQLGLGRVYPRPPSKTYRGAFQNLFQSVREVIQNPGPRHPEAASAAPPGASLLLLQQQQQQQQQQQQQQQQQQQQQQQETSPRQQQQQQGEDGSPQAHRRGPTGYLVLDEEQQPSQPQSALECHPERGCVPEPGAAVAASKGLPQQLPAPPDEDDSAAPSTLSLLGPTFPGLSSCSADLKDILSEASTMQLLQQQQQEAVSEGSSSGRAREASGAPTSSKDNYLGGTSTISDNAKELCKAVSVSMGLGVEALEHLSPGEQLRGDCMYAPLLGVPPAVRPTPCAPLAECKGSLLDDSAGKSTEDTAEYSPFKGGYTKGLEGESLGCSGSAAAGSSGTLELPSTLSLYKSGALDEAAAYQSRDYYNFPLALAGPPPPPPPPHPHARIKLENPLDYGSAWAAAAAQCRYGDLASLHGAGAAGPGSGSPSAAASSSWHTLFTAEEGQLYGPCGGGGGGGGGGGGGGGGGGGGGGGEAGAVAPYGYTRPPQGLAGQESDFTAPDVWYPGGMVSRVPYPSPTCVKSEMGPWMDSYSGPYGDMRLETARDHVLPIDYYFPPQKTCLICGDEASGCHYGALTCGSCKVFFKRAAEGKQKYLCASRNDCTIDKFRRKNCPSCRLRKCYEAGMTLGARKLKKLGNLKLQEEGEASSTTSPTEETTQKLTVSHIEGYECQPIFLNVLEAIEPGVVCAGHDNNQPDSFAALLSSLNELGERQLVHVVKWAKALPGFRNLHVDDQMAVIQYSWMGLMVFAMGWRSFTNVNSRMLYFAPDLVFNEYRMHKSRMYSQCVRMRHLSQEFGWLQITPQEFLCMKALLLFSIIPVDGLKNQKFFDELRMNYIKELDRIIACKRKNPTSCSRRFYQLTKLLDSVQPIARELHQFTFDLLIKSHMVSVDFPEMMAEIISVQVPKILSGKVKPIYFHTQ

LNCaP cells = assay: LNCaP cell phenotype and drug activity; assay type: cell-based; conditions: sunitinib-exposed LNCaP cells
786-0 cells = assay: Sunitinib dose-response proliferation assay; assay type: cell-based; conditions: Homo sapiens
Protocol: as §1

CDK1 = assay: Western blot for CDK1 in RP-R-02LM tumors treated in vivo; conditions: RP-R-02LM intrinsically sunitinib-resistant tumors
Description: Cells were maintained and cultured in the appropriate media, supplemented with 10% FBS and 1% penicillin and streptomycin. All cells are routinely tested and checked for the absence of mycoplasma. […] Crystal violet assay (Sigma) was used to evaluate cells growth after different time point-treatment, and absorbance was read using a spectrometer (xMarks Spectrometer, Bio-Rad). […] Six-week-old homozygous ICR, Severe Combined Immune-deficient (SCID) female mice were housed in a sterile, pathogen-free facility and maintained in a temperature controlled room, under a 12-hour light/dark schedule with water and food ad libitum. […] All mice were operated under sedation with oxygen, isoflurane and buprenorphine. When tumors were established, and reached 50 mm^2, mice were randomly grouped and placed in either control group or treatment groups (n=5-10). […] Tumor burden was assessed once a week by caliper measurement of two diameters of the tumor (L×W=mm^2) and reported as tumor volume ((L×W2)/2=mm^3). Body weights were assessed using a weighing scale and recorded in grams. Endpoint tumor weights were assessed using a weigh scale and recorded in grams. […]
Whole cell protein extracts from tissue and cell were denatured, separated on SDS-PAGE gels and transferred to nitrocellulose membranes. […] Quantitative measurements of Western blot analysis were performed using ImageJ and Graph-Pad software (Prism 7).

KLK2 [5] = assay: KLK2 ELISA in plasma of kidney cancer patients; assay type: in vivo, human; conditions: kidney cancer patients treated with sunitinib
androgen receptor [6] = target: T1, androgen receptor; assay: AR expression by immunofluorescence in UMRC2siSPOP cells; assay type: cell-based; conditions: UMRC2siSPOP compared to UMRC2, in the presence of sunitinib
[7] = tested on: AR targeted genes (KLK2, KLK4, ZBTB16, MYC); assay: q-PCR of AR targeted genes after sunitinib; assay type: cell-based, human; conditions: 786-0R and UMRC2 cells, sunitinib treatment
Protocol: RNA was extracted in accordance with manufacturer's protocol (miRNeasy; Qiagen), and RNA sequencing was performed as previously described (25). In brief, RNA illumine sequencing reads were de-multiplex, aligned against human genome (hg19), and results aligned to BAM formatted sequence alignment map via cufflinks program. Differential expressed transcripts were identified between 786-0 and 786-0R samples, and ranked based on the square root of the sum of squares for the log 2 fold change. For qRT-PCR analysis, gene expression assessment on AR target genes was performed using the Prime PCR array (Bio-Rad) according to manufacturer's protocol. AR primer used is forward primer; 5-[…]-3 (SEQ ID NO:1) and reverse primer; 5-[…]-3 (SEQ ID NO:2). In brief, the denaturation step was carried out at 95° C. for 10 seconds; the annealing step was carried out at 58° C. for 30 seconds, and extension step at 72° C. for 1 minute using the applied Biosystems 7900HT fast real-time PCR system (Applied Biosystems). Sequence Detection Systems Software v2.3 was used to identify cycle threshold (Ct) values and generate gene expression curves. All data were normalized to either GAPDH expression.
Gene expression of AR targeted genes was then examined in the presence or absence of sunitinib treatment.

786-OAR cells = assay: Sunitinib dose-response proliferation assay, AR-overexpressing cells; assay type: cell-based; conditions: Homo sapiens; 786-OAR (786-0 overexpressing ARwt)
Protocol: as §1

KLK2 [8] = assay: KLK2 serum level in RCC PDX models RP-R-02 and RP-R-02LM; assay type: in vivo, human; conditions: sunitinib acquired (RP-R-02) and intrinsic (RP-R-02LM) resistance models

Compound	cell proliferation (Ki67 staining) (786-0R cells)	circulating KLK2 levels (KLK2 [1])	KLK2 in tissue culture supernatant (KLK2 [2])	cell viability, single agent ([3]; AR+ 786-0R cells)	angiogenesis (CD31 staining) (786-0 tumors; 786-0 tumors)	proliferation in vivo (Ki67 staining) (786-0 tumors; 786-0 tumors)	time when tumors became resistant to sunitinib (≥50% increase volume from nadir) (786-0 tumors; second experiment, sunitinib 40 mg/kg)	AR expression (androgen receptor [4])	activity of enzalutamide (LNCaP cells)	IC50 (786-0 cells)	CDK1 protein expression (CDK1)	KLK2 in plasma (KLK2 [5])	AR expression (androgen receptor [6])	IC50 for sunitinib by AR status ([3]; AR+ lines (786-0R, UMRC2, Caki2) compared to AR- lines (786-0, ACHN))	increased gene expression of KLK2, KLK4, ZBTB16 and MYC [7]	IC50 (786-OAR cells)	KLK2 in serum (KLK2 [8])
CC(C)C[C@@H](C=O)NC(=O)[C@H](CC(C)C)NC(=O)[C@H](CC(C)C)NC(=O)OCc1ccccc1 [MG132] (Cbz-Leu-Leu-Leu-aldehyde)	restoration of cell proliferation																
CNC(=O)c1ccc(N2C(=S)N(c3ccc(C#N)c(C(F)(F)F)c3)C(=O)C2(C)C)cc1F [enzalutamide, 4-(3-(4-cyano-3-(trifluoromethyl)phenyl)-5,5-dimethyl-4-oxo-2-thioxoimidazolidin-1-yl)-2-fluoro-N-methylbenzamide]		decreased	modulated	did not have a significant effect													
CCN(CC)CCNC(=O)c1c(C)[nH]c(/C=C2\C(=O)Nc3ccc(F)cc32)c1C [sunitinib, N-(2-Diethylaminoethyl)-5-[(Z)-(5-fluoro-2-oxo-1H-indol-3-ylidene)methyl]-2,4-dimethyl-1H-pyrrole-3-carboxamide]			increased KLK2		inhibition of angiogenesis	continued to proliferate	45 days	increased	increased the activity of enzalutamide	5.2 µM	increased CDK1 protein expression	increase of KLK2	significant increased AR expression	higher IC50	2-100 fold	12.3 µM	increased
